Entries after “also recorded” stand apart in the source; their conditions may differ. Like-named read-outs stand apart in the source and are kept apart here.

This is an account of results in publication PMC10095357, “Inhibition of Soluble Epoxide Hydrolase Activity by Components of Glycyrrhiza uralensis” (International Journal of Molecular Sciences, 2023).

The target in assay [1] is T1, Human recombinant sEH (Homo sapiens, UniProt P34913).
T1 construct: purchased Cayman Chemical (Ann Arbor, MI, USA) 10011669
T1 sequence (P34913 1-555): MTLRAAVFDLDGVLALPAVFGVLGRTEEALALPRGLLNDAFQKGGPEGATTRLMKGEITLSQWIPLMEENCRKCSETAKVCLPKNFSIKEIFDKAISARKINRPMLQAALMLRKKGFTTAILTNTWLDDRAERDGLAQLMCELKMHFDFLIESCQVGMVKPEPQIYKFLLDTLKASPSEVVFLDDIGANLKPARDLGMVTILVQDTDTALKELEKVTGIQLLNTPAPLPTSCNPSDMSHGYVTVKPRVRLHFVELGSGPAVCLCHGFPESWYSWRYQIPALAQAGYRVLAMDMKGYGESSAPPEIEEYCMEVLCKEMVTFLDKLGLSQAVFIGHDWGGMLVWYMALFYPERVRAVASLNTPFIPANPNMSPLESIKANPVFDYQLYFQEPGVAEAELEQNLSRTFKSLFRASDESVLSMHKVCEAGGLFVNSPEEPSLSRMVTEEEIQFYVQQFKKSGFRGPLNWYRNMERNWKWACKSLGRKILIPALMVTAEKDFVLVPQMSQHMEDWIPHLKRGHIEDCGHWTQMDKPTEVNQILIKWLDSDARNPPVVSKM
Description: sEH assay (fluorescent substrate hydrolysis, inhibitory activity and IC50). Conditions: for inhibition at 100 µM: read-out: Inhibitory Activity at 100 μM (%); for IC50: sEH inhibition. The format is biochemical.

In assay [2] the target is T1, Human recombinant sEH. Briefly: sEH enzyme kinetics (Lineweaver–Burk and Dixon plots). The format is biochemical. Conditions: for Ki: Dixon plot analysis; for Binding Mode: Lineweaver–Burk plot.
Where [3] appears, read: compound at 100 μM, tested three times.

For the compound `O=C1C[C@@H](c2ccc(O)cc2)Oc2cc(O)ccc21` [Compound 1, liquiritigenin], in assay [1], the “sEH inhibitory effect (in words)” value is “moderate inhibitory effects”; the inhibition at 100 µM is 61.5 ± 1.2%; the half-maximal inhibitory concentration (IC50) (in general, the midpoint of a concentration-inhibition curve) turned out to be 40.1 ± 1.2 µM. Besides, in assay [2], the Ki (as a rule, the equilibrium dissociation constant of an inhibitor or competing ligand from its target) stood at 63.1 µM and the “Binding Mode” value was “noncompetitive inhibitors; also recorded: non-competitive”.
In the case of `O=C1C[C@@H](c2ccc(O[C@@H]3O[C@H](CO)[C@@H](O)[C@H](O)[C@H]3O)cc2)Oc2cc(O)ccc21` [Compound 2, liquiritin], the inhibition at 100 µM in assay [1] (setting [3]) came out at 46.8 ± 0.8%.
With `O=C(/C=C/c1ccc(O)cc1)c1ccc(O)cc1O` [Compound 4, isoliquiritigenin], the IC50 in assay [1] came to 17.6 ± 0.6 µM. Besides, in assay [2], the Ki was determined as 24.2 µM and the “Binding Mode” value was “Noncompetitive”.
As for `O=C(/C=C/c1ccc(O[C@@H]2O[C@H](CO)[C@@H](O)[C@H](O)[C@H]2O)cc1)c1ccc(O)cc1O` [Compound 5, isoliquiritin], in assay [1] (setting [3]), the inhibition at 100 µM stood at 80.2 ± 0.3%. Moreover, the concentration for half-maximal inhibition (IC50) in assay [1] was determined as 25.8 ± 0.2 µM. Moreover, in assay [2], the Ki was 48.8 µM and the “Binding Mode” value is “Noncompetitive”.
With `COc1cc(O)ccc1C(=O)/C=C/c1ccc(O)cc1` [Compound 7, 2′-methoxyisoliquiritigenin], in assay [1] (setting [3]), the inhibition at 100 µM worked out at 85.1 ± 0.3%. In addition, the IC50 in assay [1] amounted to 16.2 ± 0.3 µM. Also, in assay [2], the inhibition constant Ki amounted to 19.8 µM and the “Binding Mode” value is “competitive inhibitors”.
Turning to `COc1ccc(-c2coc3cc(O[C@@H]4O[C@H](CO)[C@@H](O)[C@H](O)[C@H]4O)ccc3c2=O)cc1` [Compound 8, ononin], the inhibition at 100 µM in assay [1] (setting [3]) stood at 60.7 ± 1.3%. The IC50 in assay [1] was found to be 35.7 ± 0.7 µM. Moreover, in assay [2], the inhibition constant (Ki) is 54.4 µM and the “Binding Mode” value was “competitive inhibitors”.
The corresponding values for `COc1c(CC=C(C)C)c(O)cc2oc(=O)c3c4ccc(O)cc4oc3c12` [Compound 9, glycyrol] are 69.5 ± 0.5%, 42.5 ± 1.5 µM, 41.1 µM and “noncompetitive inhibitors; also recorded: non-competitive”.
Regarding `COc1c(CC=C(C)C)c(O)cc2oc(=O)c(-c3ccc(O)cc3O)cc12` [Compound 10, glycycoumarin], the inhibition at 100 µM in assay [1] (setting [3]) is more than 100%. Further, the “sEH inhibitory effect (in words)” value in assay [1] (conclusion statement) is on record as “potent effect”. Moreover, the IC50 in assay [1] is 1.9 ± 0.2 µM. In addition, in assay [2], the Ki is 2 µM and the “Binding Mode” value is on record as “competitive inhibitors”.
The corresponding values for `CC(C)=CCc1cc(-c2coc3cc(O)c(CC=C(C)C)c(O)c3c2=O)cc(O)c1O` [Compound 11, isoangustone A] are 68.4 ± 3.1%, “moderate inhibitory effects”, 85.7 ± 1.2 µM, 75.6 µM and “noncompetitive inhibitors; also recorded: non-competitive”.
As for `CC1(C)[C@@H](O[C@H]2O[C@H](C(=O)O)[C@@H](O)[C@H](O)[C@H]2O[C@@H]2O[C@H](C(=O)O)[C@@H](O)[C@H](O)[C@H]2O)CC[C@]2(C)[C@H]3C(=O)C=C4[C@@H]5C[C@@](C)(C(=O)O)CC[C@]5(C)CC[C@@]4(C)[C@]3(C)CC[C@@H]12` [Glycyrrhizin, reference compound], the inhibition at 100 µM in assay [1] (setting [3]) came out at 18.4%. Besides, in assay [1] (conclusion statement), the “sEH inhibitory effect (in words)” value is “lacked such an effect”.
As to isoliquiritin apioside [Compound 6], the “Inhibitory Activity at 100 μM (%)” value in assay [1] (setting [3]) was found to be 79.3 ± 1.4%. The “Binding Mode” value in assay [2] is recorded as “Noncompetitive”.
For liquiritin apioside [Compound 3], the “Inhibitory Activity at 100 μM (%)” value in assay [1] (setting [3]) was found to be 57.6 ± 1.1%. Moreover, the “Binding Mode” value in assay [2] is on record as “competitive inhibitors”.
